pEC50: −log10 of the molar value. Where two headings read alike, the source gives them in different places.
Legend:
GABAA1 (α1β2γ2) receptor = target: T1, GABAA1 (α1β2γ2) receptor (Homo sapiens, UniProt P14867+P47870); assay: Patch-clamp electrophysiology on recombinant GABAA1 receptor in HEK293 cells, with 3 μM GABA; format: cell-based; conditions: for Emax at 0.1 µM / Emax at 1 µM / Emax: HEK293; for Emax at 0.1 µM: 0.1 μM compound together with 3 μmol GABA; for Emax at 0.1 µM / Emax at 1 µM: read-out: potency: ratio of the peak current on the GABAA1 receptor to the peak current in 100 μmol GABA; for Emax at 1 µM: 1 μM compound together with 3 μmol GABA; for Emax / pEC50: together with 3 μmol GABA; for Emax: relative to peak current in 100 μmol GABA
T1 construct: expressed in transfected cells
T1 sequence (P14867 28-456): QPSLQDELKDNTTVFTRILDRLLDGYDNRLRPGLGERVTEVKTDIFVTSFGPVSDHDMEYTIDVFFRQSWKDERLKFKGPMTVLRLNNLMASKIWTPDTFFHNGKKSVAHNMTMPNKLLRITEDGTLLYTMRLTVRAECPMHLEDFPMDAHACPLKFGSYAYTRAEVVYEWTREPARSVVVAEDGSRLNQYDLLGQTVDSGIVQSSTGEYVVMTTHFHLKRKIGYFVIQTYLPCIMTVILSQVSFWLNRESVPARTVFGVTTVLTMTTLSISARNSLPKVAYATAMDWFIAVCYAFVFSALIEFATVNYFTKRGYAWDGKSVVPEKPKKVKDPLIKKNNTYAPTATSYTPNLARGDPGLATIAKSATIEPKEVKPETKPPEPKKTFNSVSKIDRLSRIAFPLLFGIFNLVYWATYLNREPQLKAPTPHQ
T1 sequence (P47870 26-512): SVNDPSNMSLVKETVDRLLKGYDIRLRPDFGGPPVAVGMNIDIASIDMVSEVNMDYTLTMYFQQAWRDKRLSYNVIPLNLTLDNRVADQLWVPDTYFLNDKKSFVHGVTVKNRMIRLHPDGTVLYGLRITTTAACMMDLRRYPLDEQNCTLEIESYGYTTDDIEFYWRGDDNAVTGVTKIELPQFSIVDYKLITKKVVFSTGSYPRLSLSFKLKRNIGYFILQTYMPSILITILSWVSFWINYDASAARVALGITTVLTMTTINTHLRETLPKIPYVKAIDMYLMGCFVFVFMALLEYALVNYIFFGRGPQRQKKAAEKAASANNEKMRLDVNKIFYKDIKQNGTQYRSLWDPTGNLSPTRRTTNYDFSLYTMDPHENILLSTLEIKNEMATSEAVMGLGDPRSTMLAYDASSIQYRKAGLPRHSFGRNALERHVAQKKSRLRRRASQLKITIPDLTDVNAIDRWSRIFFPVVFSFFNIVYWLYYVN
T1 sequence (P18507 40-475 partner): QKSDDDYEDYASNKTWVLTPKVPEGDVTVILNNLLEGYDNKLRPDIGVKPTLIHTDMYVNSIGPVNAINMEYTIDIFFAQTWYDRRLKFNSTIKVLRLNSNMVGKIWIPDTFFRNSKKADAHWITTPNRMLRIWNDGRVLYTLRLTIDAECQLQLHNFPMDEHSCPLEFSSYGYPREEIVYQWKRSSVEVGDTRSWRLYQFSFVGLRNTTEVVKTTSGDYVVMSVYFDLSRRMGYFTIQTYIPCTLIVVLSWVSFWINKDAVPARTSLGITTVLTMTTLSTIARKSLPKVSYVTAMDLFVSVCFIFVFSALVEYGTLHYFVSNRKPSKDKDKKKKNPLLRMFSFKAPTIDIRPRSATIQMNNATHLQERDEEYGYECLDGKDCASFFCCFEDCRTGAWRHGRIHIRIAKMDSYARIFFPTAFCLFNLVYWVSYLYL
Protocol: (§1) The present invention applies the two subunits of the recombinant GABAA receptor: α1β2γ2 and α4β3δ to evaluate the potency of the exemplary compounds in vitro by patch-clamp electrophysiology.
(§2) Extracellular fluid: 140 mM NaCl, 5 mM CsCl, 2 mM CaCl2·2H2O, 1 mM MgCl2·6H2O, 5 mM HEPES, 10 mM D-Glucose, pH=7.4 (NaOH).
(§3) Intracellular fluid: 130 mM CsCl, 0.1 mM CaCl2·H2O, 2 mM MgCl2·6H2O, 1.1 mM EGTA, 5 mM Na2-ATP, 10 mM HEPES, pH=7.2 (CsOH).
The HEK293 cells line stably expressing GABAA (α1β2γ2) receptors was cultured in Dulbecco's Modified Eagle Medium (DMEM) supplemented with 10% fetal bovine serum, 800 μg/mL G418, 200 μg/mL Hygromycin B and 100 μg/mL Zeocin. Cells were grown in a humidified incubator at 37° C. with 5% carbon dioxide.
Before manual patch clamp test, the cells were detached using 0.25%-Trypsin-EDTA solution. Then 8×10^3 cells were plated onto coverslips, and cultured in a 24-well plate (final medium volume: 500 μL) and tested after 18 hours by patch clamp.
(§4) Glass pipette (BF 150-86-10, Sutter Instruments) was pulled using a micropipette puller (P97, Sutter Instruments). The glass pipette was manipulated using a micro-manipulator (MP285, Sutter Instruments) under the microscope (IX71, Olympus). After touching the cell, a slight suction was applied to achieve high seal resistance (GQ). Fast capacitance (in pF) compensation was made after achieving high seal, and the membrane was broken. Cell capacitance (in pF) compensation was made from whole-cell capacitance compensation after the whole cell mode was achieved. No leak subtraction was made.
(§5) The test and control solutions flowed into a recording chamber mounted on the stage of an inverted microscope via a gravity-fed solution delivery system. During the experiment, solutions were withdrawn from the recording chamber by vacuum aspiration. Each concentration was tested at multiple times. All tests were performed at room temperature.
(§6) Whole cell model recorded GABAA1 receptors current experimental protocol was indicated as follows: When sealing, cell was at a holding potential of −70 mV, with gap-free mode to record the peak current. The cell would be applied with 3 μM GABA to active current. After the test articles application for 30 s, each concentration of test articles was applied with 3 μM GABA followed by 2 minutes washout using extracellular solution. Finally, 100 μM GABA was used as a positive control. The data were collected by EPC-10 amplifier and stored in PatchMaster (HEKA) software.
(§7) The following criteria are used to determine whether the data is acceptable: • (1) Electrode resistance <5MΩ • (2) Seal resistance >1GΩ • (3) The start of access resistance <15 MΩ • (4) The end of access resistance <15 MΩ • (5) No obvious spontaneous current decay. • (6) No obvious current leakage when the membrane potential is-70 mv. 56.6 Data Analysis
In the detection of GABAA1, the currents of 3 μM GABA and different concentrations of test compounds were respectively normalized to the current of 100 μM GABA
[formula] and then the activation rate corresponding to each concentration was calculated.
[formula] and then the activation rate corresponding to each concentration was calculated. Means, Standard Deviation and Standard Error were calculated for each test group. EC50 value was calculated using nonlinear regression: Y=Bottom+(Top−Bottom)/(1+10^((Log EC50−X)×HillSlope))
To fit data to the concentration-response, EC50 was the concentration giving a half-maximum effect and Hillslope was the Hill coefficient. Curve-fitting and EC50 calculations were performed using Graphpad5.0 software.
Emax is defined as the ratio of the peak current generated on the GABAA1 receptor to the peak current generated only in 100 μmol of GABA and the ratio is multiplied by 100%. The peak current generated on the GABAA1 receptor is that the exemplary compounds act on the GABAA1 receptor together with 3 μmol GABA.

GABAA4 (α4β3δ) receptor = target: T2, GABAA4 (α4β3δ) receptor (Homo sapiens, UniProt P28472+P48169); assay: Patch-clamp electrophysiology, compound alone or with 10 nM GABA (Table 3); format: cell-based; conditions: for Emax: relative to peak current in GABA only
T2 construct: expressed in transfected cells; host or cells: HEK293 (transient transfection, plasmids 1:1:1)
T2 sequence (P48169 36-554): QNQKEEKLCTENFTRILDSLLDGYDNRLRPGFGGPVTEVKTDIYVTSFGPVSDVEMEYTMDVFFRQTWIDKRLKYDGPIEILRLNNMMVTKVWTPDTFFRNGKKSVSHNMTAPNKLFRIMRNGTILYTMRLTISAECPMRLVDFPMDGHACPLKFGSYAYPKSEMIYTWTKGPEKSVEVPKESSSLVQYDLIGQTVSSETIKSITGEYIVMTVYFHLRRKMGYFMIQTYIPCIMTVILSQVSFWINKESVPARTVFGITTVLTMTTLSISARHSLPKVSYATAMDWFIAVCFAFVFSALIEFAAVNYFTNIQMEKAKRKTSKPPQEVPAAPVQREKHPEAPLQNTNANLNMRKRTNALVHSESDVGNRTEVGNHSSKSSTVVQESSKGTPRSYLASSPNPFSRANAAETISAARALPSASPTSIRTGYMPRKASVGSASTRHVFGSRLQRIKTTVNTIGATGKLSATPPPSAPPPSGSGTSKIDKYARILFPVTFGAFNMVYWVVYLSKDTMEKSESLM
T2 sequence (P28472 26-473): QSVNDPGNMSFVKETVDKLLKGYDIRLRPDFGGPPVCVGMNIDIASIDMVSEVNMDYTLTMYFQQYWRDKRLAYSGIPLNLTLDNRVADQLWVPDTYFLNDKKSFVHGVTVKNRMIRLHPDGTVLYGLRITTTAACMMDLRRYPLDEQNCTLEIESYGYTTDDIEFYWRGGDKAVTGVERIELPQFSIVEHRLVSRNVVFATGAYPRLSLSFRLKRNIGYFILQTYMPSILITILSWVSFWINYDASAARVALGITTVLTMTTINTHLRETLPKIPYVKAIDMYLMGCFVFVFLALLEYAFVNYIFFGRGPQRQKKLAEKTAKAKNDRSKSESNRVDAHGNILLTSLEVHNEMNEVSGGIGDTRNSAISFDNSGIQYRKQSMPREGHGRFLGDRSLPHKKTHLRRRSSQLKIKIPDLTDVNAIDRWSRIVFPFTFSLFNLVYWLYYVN
T2 sequence (O14764 25-452 partner): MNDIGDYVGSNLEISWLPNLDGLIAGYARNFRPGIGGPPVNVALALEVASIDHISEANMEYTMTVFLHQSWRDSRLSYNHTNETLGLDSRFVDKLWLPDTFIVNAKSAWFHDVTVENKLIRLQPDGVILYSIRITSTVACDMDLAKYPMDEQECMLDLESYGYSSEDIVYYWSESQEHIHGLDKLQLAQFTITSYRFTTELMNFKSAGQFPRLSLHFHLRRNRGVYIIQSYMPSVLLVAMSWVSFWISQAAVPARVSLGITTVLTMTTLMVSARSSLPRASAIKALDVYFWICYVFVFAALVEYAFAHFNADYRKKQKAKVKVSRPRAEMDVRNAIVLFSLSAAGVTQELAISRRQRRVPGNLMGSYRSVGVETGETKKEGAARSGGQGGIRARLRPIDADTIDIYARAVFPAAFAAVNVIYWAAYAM
Protocol: as §1, §2, §3
HEK293 cell line was cultured in DMEM containing 10% fetal bovine serum and 5% carbon dioxide at 37° C.
Cell passage: The old medium was removed, and the cells were washed once with PBS. Then 1 mL 0.25%-Trypsin-EDTA solution was added to digest cells. The culture dish was incubated at 37° C. in pre-warmed incubator for 0.5 minutes. As soon as cells were detached, about 5 mL 37° C. pre-warmed complete medium was added. Cell aggregates were dissociated by gentle pipetting. The cell suspension was transferred into a sterile centrifuge tube and then the cell suspension was be spun at approximately 1000 rpm for 5 minutes. The cells were amplified or maintained by seeding 2.5×10^5 cells in a 6 cm dish (final medium volume: 5 mL). For transfection, 8×10^3 cells were plated onto coverslips, and cultured in a 24-well plate (final medium volume: […]).
Transfection: Second day, the transfection of GABAA4 (α4, β3, δ plasmid ratio 1:1:1) was performed. The X-tremeGENE HP DAN Transfection Reagents kit were used. The ratio of the plasmid and transfection reagent was 1 μg: 2 μL. The amount of plasmid in the 24-well plate was 0.5 μg per well, and the transfection reagent was 1 μL. The following specific steps were taken for preparing the 12 wells: The 600 μL Opti-MEM was added to a sterile centrifuge tube along with 6 μg of plasmid and was allowed to mix well; Then, the 12 μL of transfection reagent was added, mixed well following 15 min incubation at room temperature. The transfection complex was then inoculated into the cell, 50 μL per well, and the transfection complex was lightly stirred and mixed.
This mixture was changed on the third day, and the patch-clamp was performed on the fourth day.
as §4, §5
as §6, with “GABAA4” for “GABAA1”, “10 nM” for “3 μM”, “10” for “100”
as §7, with “56.6 Data Analysis” left out

[1] = with 10 nM GABA, read-out: EC50 (with 10 nM GABA)
[2] = with 10 nM GABA, read-out: Emax (with 10 nM GABA)
[3] = without GABA, read-out: Emax (without GABA)

## C[C@]12CC[C@@H](O)C[C@@H]1CC[C@@H]1[C@@H]2CC[C@]2(C)[C@@H](C(=O)Cn3ncnn3)CCC[C@@H]12 [KH004]
GABAA1 (α1β2γ2) receptor
  Emax at 0.1 µM: 20 to 40%
  Emax at 1 µM: > 80%
  Emax: 106%
  pEC50: 6.39
GABAA4 (α4β3δ) receptor; [1]
  pEC50: 6.87
GABAA4 (α4β3δ) receptor; [2]
  Emax: 172%
GABAA4 (α4β3δ) receptor; without GABA, read-out: EC50 (without GABA)
  pEC50: 6.77
GABAA4 (α4β3δ) receptor; [3]
  Emax: 158%

## C[C@@]1(O)CC[C@@]2(C)[C@@H](CC[C@@H]3[C@@H]2CC[C@]2(C)[C@@H](C(=O)Cn4ncnn4)CCC[C@@H]32)C1 [KH022]
GABAA1 (α1β2γ2) receptor
  Emax at 0.1 µM: 0 to 20%
  Emax at 1 µM: 40 to 60%
  Emax: 93.1%
  pEC50: 6.09
GABAA4 (α4β3δ) receptor; [1]
  pEC50: 6.41
GABAA4 (α4β3δ) receptor; [2]
  Emax: 88.6%
GABAA4 (α4β3δ) receptor; [3]
  Emax: 45.8%

## C[C@@]1(O)CC[C@H]2[C@H](CC[C@@H]3[C@@H]2CC[C@]2(C)[C@@H](C(=O)Cn4cc(C#N)cn4)CC[C@@H]32)C1 [The control, reference compound]
GABAA1 (α1β2γ2) receptor
  Emax at 0.1 µM: 0 to 20%
  Emax at 1 µM: 20 to 40%
  Emax: 84.2%
GABAA4 (α4β3δ) receptor; EC50 (with 10 nM GABA), with 10 nM GABA
  pEC50: 6.66
GABAA4 (α4β3δ) receptor; [2]
  Emax: 149%
GABAA4 (α4β3δ) receptor; [3]
  Emax: 114%

Reference: US12415830B2, “Steroid compound, and use thereof and preparation method therefor” (Chengdu Kanghong Pharmaceutical Co Ltd, priority 2019, dated 2025)
